Data taken from US6737383B1, “Herbicidal oxadiazolidines” (priority 1999, dated 2004).

Key:
[1] = system: wheat; assay: Test B pre/postemergence wheat; assay type: in vivo, Triticum aestivum
Summary of the method: (§1)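 Herbicidal effect was estimated by eye on a ten-point control scale after plants spent twelve to sixteen days in a greenhouse following soil or foliar treatment. Foliar sprays targeted plants at one to four leaves; all doses were formulated in a non-phytotoxic solvent with surfactant.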

[2] = system: wild oat; assay: Test B pre/postemergence wild oat; assay type: in vivo, Avena fatua
Summary of the method: as §1

[3] = system: velvetleaf; assay: Test B pre/postemergence velvetleaf; assay type: in vivo, Abutilon theophrasti
Summary of the method: as §1

[4] = system: surinam grass; assay: Test B pre/postemergence surinam grass; assay type: in vivo, Brachiaria decumbens
Summary of the method: as §1

[5] = system: sugar beet; assay: Test B pre/postemergence sugar beet; assay type: in vivo, Beta vulgaris
Summary of the method: as §1

[6] = system: corn; assay: Test B pre/postemergence corn; assay type: in vivo, Zea mays
Summary of the method: as §1

[7] = system: purple nutsedge; assay: Test B pre/postemergence purple nutsedge; assay type: in vivo, Cyperus rotundus
Summary of the method: as §1

[8] = system: pigweed; assay: Test B pre/postemergence pigweed; assay type: in vivo, Amaranthus retroflexus
Summary of the method: as §1

[9] = system: cocklebur; assay: Test B pre/postemergence cocklebur; assay type: in vivo, Xanthium strumarium
Summary of the method: as §1

[10] = system: rape; assay: Test B pre/postemergence rape; assay type: in vivo, Brassica napus
Summary of the method: as §1

[11] = system: bedstraw; assay: Test B pre/postemergence bedstraw; assay type: in vivo, Galium aparine
Summary of the method: as §1

[12] = system: soybean; assay: Test B pre/postemergence soybean; assay type: in vivo, Glycine max
Summary of the method: as §1

[13] = system: giant foxtail; assay: Test B pre/postemergence giant foxtail; assay type: in vivo, Setaria faberii
Summary of the method: as §1

[14] = system: morningglory; assay: Test B pre/postemergence morningglory; assay type: in vivo, Ipomoea hederacea
Summary of the method: as §1

[15] = system: blackgrass; assay: Test B pre/postemergence blackgrass; assay type: in vivo, Alopecurus myosuroides
Summary of the method: as §1

[16] = system: crabgrass; assay: Test B pre/postemergence crabgrass; assay type: in vivo, Digitaria sanguinalis
Summary of the method: as §1

[17] = Postemergence, Rate 62 g/ha, scale of 0 to 10, 0 is no effect, 10 is complete control
[18] = Postemergence, Rate 125 g/ha, scale 0 to 10, 0 is no effect, 10 is complete control
[19] = Postemergence, Rate 500 g/ha, scale 0 to 10, 0 is no effect, 10 is complete control
[20] = Preemergence, Rate 62 g/ha, scale of 0 to 10 where 0 is no effect and 10 is complete control
[21] = Preemergence, Rate 125 g/ha, scale 0 to 10, 0 is no effect, 10 is complete control
[22] = Preemergence, Rate 500 g/ha, scale of 0 to 10 where 0 is no effect and 10 is complete control
[23] = Rate 250 g/ha, Postemergence, scale of 0 to 10 where 0 is no effect and 10 is complete control
[24] = Preemergence, Rate 500 g/ha, scale 0 to 10, 0 is no effect, 10 is complete control

CCOC(=O)C=C(Cn1c(=O)on(C(=O)N(c2ccc(F)cc2F)C(C)C)c1=O)OCC [Compound 519]
7: Plant response rating, Crabgrass [16, 20]
10: Plant response rating, Giant foxtail [13, 20] | Giant foxtail plant response rating [13, 21] | Giant foxtail plant response rating (0 to 10 scale) ([13]; Preemergence, Rate 250 g/ha) | Giant foxtail plant response rating [13, 22] | Crabgrass plant response rating (0 to 10 scale) ([16]; Preemergence, Rate 250 g/ha) | Crabgrass plant response rating [16, 22]
0: Wheat plant response rating [1, 17] | Wheat plant response rating [1, 18] | Plant response rating, Wheat [1, 19] | Plant response rating, Wheat [1, 20] | Wheat plant response rating [1, 21] | Wheat plant response rating (0 to 10 scale) ([1]; Preemergence, Rate 250 g/ha) | Wheat plant response rating [1, 22] | Plant response rating, Wheat [1, 23] | Wild oats plant response rating [2, 17] | Wild oats plant response rating [2, 18] | Plant response rating, Wild oats [2, 19] | Plant response rating, Wild oats [2, 20] | Wild oats plant response rating [2, 21] | Wild oats plant response rating (0 to 10 scale) ([2]; Preemergence, Rate 250 g/ha) | Wild oats plant response rating [2, 22] | Plant response rating, Wild oats [2, 23] | Plant response rating, Velvetleaf [3, 20] | Velvetleaf plant response rating [3, 21] | Velvetleaf plant response rating (0 to 10 scale) ([3]; Preemergence, Rate 250 g/ha) | Velvetleaf plant response rating [3, 22] | B. signalgrass plant response rating [4, 17] | B. signalgrass plant response rating [4, 18] | Plant response rating, B. signalgrass [4, 19] | Plant response rating, B. signalgrass [4, 20] | B. signalgrass plant response rating [4, 21] | B. signalgrass plant response rating (0 to 10 scale, 0 is no effect, 10 is complete control) ([4]; Preemergence, Rate 250 g/ha) | B. signalgrass plant response rating [4, 24] | Plant response rating, B. signalgrass [4, 23] | Sugarbeets plant response rating [5, 17] | Sugarbeets plant response rating [5, 18] | Plant response rating, Sugarbeets [5, 19] | Plant response rating, Sugarbeets [5, 20] | Sugarbeets plant response rating [5, 21] | Sugarbeets plant response rating (0 to 10 scale) ([5]; Preemergence, Rate 250 g/ha) | Sugarbeets plant response rating [5, 22] | Plant response rating, Sugarbeets [5, 23] | Corn plant response rating [6, 17] | Corn plant response rating [6, 18] | Plant response rating, Corn [6, 19] | Plant response rating, Corn [6, 20] | Corn plant response rating [6, 21] | Corn plant response rating (0 to 10 scale) ([6]; Preemergence, Rate 250 g/ha) | Corn plant response rating [6, 22] | Plant response rating, Corn [6, 23] | Nutsedge plant response rating [7, 18] | Plant response rating, Nutsedge [7, 19] | Plant response rating, Nutsedge [7, 20] | Nutsedge plant response rating [7, 21] | Nutsedge plant response rating [7, 22] | Redroot pigweed plant response rating [8, 17] | Redroot pigweed plant response rating [8, 18] | Plant response rating, Redroot pigweed [8, 19] | Plant response rating, Redroot pigweed [8, 20] | Redroot pigweed plant response rating [8, 21] | Redroot pigweed plant response rating (0 to 10 scale) ([8]; Preemergence, Rate 250 g/ha) | Redroot pigweed plant response rating [8, 22] | Plant response rating, Redroot pigweed [8, 23] | Cocklebur plant response rating [9, 17] | Cocklebur plant response rating [9, 18] | Plant response rating, Cocklebur [9, 19] | Plant response rating, Cocklebur [9, 20] | Cocklebur plant response rating [9, 21] | Cocklebur plant response rating (0 to 10 scale) ([9]; Preemergence, Rate 250 g/ha) | Cocklebur plant response rating [9, 22] | Plant response rating, Cocklebur [9, 23] | Rape plant response rating [10, 17] | Rape plant response rating [10, 18] | Plant response rating, Rape [10, 19] | Plant response rating, Rape [10, 20] | Rape plant response rating [10, 21] | Rape plant response rating (0 to 10 scale) ([10]; Preemergence, Rate 250 g/ha) | Rape plant response rating [10, 22] | Plant response rating, Rape [10, 23] | Bedstraw plant response rating [11, 17] | Plant response rating, Bedstraw [11, 19] | Plant response rating, Bedstraw [11, 20] | Bedstraw plant response rating [11, 21] | Bedstraw plant response rating (0 to 10 scale) ([11]; Preemergence, Rate 250 g/ha) | Bedstraw plant response rating [11, 24] | Plant response rating, Bedstraw [11, 23] | Plant response rating, Soybean [12, 20] | Soybean plant response rating [12, 21] | Soybean plant response rating (0 to 10 scale) ([12]; Preemergence, Rate 250 g/ha) | Soybean plant response rating [12, 22] | Morningglory plant response rating [14, 17] | Morningglory plant response rating [14, 18] | Plant response rating, Morningglory [14, 19] | Plant response rating, Morningglory [14, 20] | Morningglory plant response rating [14, 21] | Morningglory plant response rating (0 to 10 scale) ([14]; Preemergence, Rate 250 g/ha) | Morningglory plant response rating [14, 22] | Plant response rating, Morningglory [14, 23] | Blackgrass plant response rating [15, 17] | Blackgrass plant response rating [15, 18] | Plant response rating, Blackgrass [15, 19] | Plant response rating, Blackgrass [15, 20] | Blackgrass plant response rating [15, 21] | Plant response rating, Blackgrass [15, 23] | Crabgrass plant response rating [16, 17]
3: Soybean plant response rating [12, 17] | Soybean plant response rating [12, 18]
8: Crabgrass plant response rating [16, 21]
6: Plant response rating, Giant foxtail [13, 19] | Plant response rating, Crabgrass [16, 19] | Plant response rating, Crabgrass [16, 23]
4: Plant response rating, Velvetleaf [3, 19] | Plant response rating, Velvetleaf [3, 23] | Plant response rating, Soybean [12, 19] | Plant response rating, Soybean [12, 23] | Giant foxtail plant response rating [13, 17] | Giant foxtail plant response rating [13, 18] | Plant response rating, Giant foxtail [13, 23] | Blackgrass plant response rating (0 to 10 scale) ([15]; Preemergence, Rate 250 g/ha) | Blackgrass plant response rating [15, 22]
2: Velvetleaf plant response rating [3, 17] | Velvetleaf plant response rating [3, 18] | Crabgrass plant response rating [16, 18]
